Measurements taken from patent US6624120B1, “Substituted herbicidal phenyluracils” (priority 1999, dated 2003).

Key:
[1] = logP determination by HPLC (EEC Directive 79/831 Annex V.A8), reversed-phase column C 18; assay type: physicochemical
Procedure: The logP values given in Table 1 were determined in accordance with EEC Directive 79/831 Annex V.A8 by HPLC (High Performance Liquid Chromatography) using a reversed-phase column (C 18). Temperature: 43° C.
(a) Mobile phases for the determination in the acidic range: 0.1% aqeuous phosphoric acid, acetonitrile; linear gradient from 10% acetonitrile to 90% acetonitrile—the corresponding test results in Table 1 are labelled^a).
(b) Mobile phases for the determination in the neutral range: 0.01 molar aqueous phosphate buffer solution, acetonitrile; linear gradient from 10% acetonitrile to 90% acetonitrile—the corresponding test results in Table 1 are labelled^b).
Calibration was carried out using unbranched alkan-2-ones (having 3 to 16 carbon atoms) with known logP values (determination of the logP values by the retention times using linear interpolation between two successive alkanones).

[2] = reversed-phase HPLC column (C 18); a) acidic range: 0.1% aqueous phosphoric acid/acetonitrile gradient, 43° C.

| Structure (SMILES) | melting point [°C] | chromatographic logP [1, 2] | further results |
| --- | --- | --- | --- |
| N#Cc1cc(F)c(-n2c(=O)cc(C(F)(F)F)[nH]c2=O)cc1Oc1cccc2c(O)cccc12 | 168 |  |  |
| COc1cccc2c(Oc3cc(-n4c(=O)cc(C(F)(F)F)n(C)c4=O)c(F)cc3C#N)cccc12 | 109 |  |  |
| N#Cc1cc(F)c(-n2c(=O)cc(C(F)(F)F)[nH]c2=O)cc1Oc1ccc2ccccc2c1 | 92 |  |  |
| Cn1c(C(F)(F)F)cc(=O)n(-c2cc(Oc3ccc4cc(O)ccc4c3)c(C#N)cc2F)c1=O | 174 |  |  |
| CCOC(=O)C(C)Oc1ccc2ccc(Oc3cc(-n4c(=O)cc(C(F)(F)F)n(C)c4=O)c(F)cc3C#N)cc2c1 (racemic) | 133 |  |  |
| CCOC(=O)[C@@H](C)Oc1ccc2cc(Oc3cc(-n4c(=O)cc(C(F)(F)F)n(C)c4=O)c(F)cc3C#N)ccc2c1 [Example 6, ethyl (R)-2-[6-(2-cyano-4-fluoro-5-[3-methyl-2,6-dioxo-4-trifluoromethyl-3,6-dihydro-1(2H)-pyrimidinyl]-phenoxy)-2-naphthyl-oxy]-propanoate] |  |  | chromatographic logP ([1]; reversed-phase HPLC column (C 18), at pH 2.3): 3.99 |
| COc1ccc2cc(Oc3cc(-n4c(=O)cc(C(=O)O)[nH]c4=O)c(F)cc3C#N)ccc2c1 [Example 31, 1-[4-cyano-2-fluoro-5-(6-methoxy-naphthalen-2-yl-oxy)-phenyl]-2,6-dioxo-1,2,3,6-tetrahydro-pyrimidine-4-carboxylic acid] |  | 2.11 |  |
| COC(=O)c1cc(=O)n(-c2cc(Oc3ccc4cc(OC)ccc4c3)c(C#N)cc2F)c(=O)n1C [Example 33, methyl I-[4-cyano-2-fluoro-5-(6-methoxy-naphthalen-2-yl-oxy)-phenyl]-2,6-dioxo-3-methyl-1,2,3,6-tetrahydro-pyrimidine-4-carboxylate] |  | 3.22 |  |
| COc1ccc2cc(Oc3cc(-n4c(=O)cc(C(N)=O)n(C)c4=O)c(F)cc3C#N)ccc2c1 [Example 35, 1-[4-cyano-2-fluoro-5-(6-methoxy-naphthalen-2-yl-oxy)-phenyl]-2,6-dioxo-3-methyl-1,2,3,6-tetrahydro-pyrimidine4-carboxamide] |  | 2.06 |  |
| CCOC(=O)NC1=CC(=O)N(c2cc(Oc3ccc4cc(OC)ccc4c3)c(C#N)cc2F)C1=O [Example (VII-1), ethyl [1-(4-cyano-2-fluoro-5-(6-methoxy-naphthalen-2-yl-oxy)-phenyl)-2,5-dioxo-2,5-dihydro-1H-pyrrol-3-yl]-carbamate] |  |  | chromatographic logP ([1]; mobile-phase label not given): 3.63 |
